# Key:
# [1] = test system: BDNF mRNA; experiment: BDNF mRNA expression in rat cortical neurones under basal conditions (rt RT-PCR); assay type: cell-based; conditions: 30 nM
# Protocol: Rat cortical neurones were cultured by modification of a method previously described (Singer, et al., Neuroscience Letters, 1996, 212, pp. 13-16). Twelve days after the start of culturing, sarsasapogenin (30 nM), smilagenin (30 nM), 4-methylcatechol (0.5 mM), an inducer of NGF and BDNF release (Saporito et al., Experimental Neurology., 1993, 123, pp. 295-302; Nitta et al., Journal of Pharmacology and Experimental Therapeutics, 1999, 291, pp. 1276-1283) or vehicle (dimethyl sulfoxide, DMSO, 0.25%) were added for 1, 3 or 6 h. After incubation the total messenger ribonucleic acid (mRNA) was quantified using real time reverse transcription-polymerase chain reaction (rt RT-PCR).
# [2] = test system: BDNF; experiment: BDNF protein in culture medium of rat cortical neurones exposed to β-amyloid; assay type: cell-based; conditions: 10 μM pre-incubation 48 h, then β-amyloid 10 μg/ml 48 h
# Protocol: (§1) Rat cortical neurones were cultured by modification of a method previously described (Eckenstein and Sofroniew, Journal of Neuroscience, 1983, 3, pp. 2286-2291). On day 8, the culture medium was changed to a medium containing vehicle (DMSO, 0.5%) or smilagenin or sarsasapogenin (10 μM). On day 10, rat primary cortical neurones were exposed to β-amyloid (10 μg/ml) for 48 h at 37° C. and the concentration of BDNF in the culture medium, the number of choline acetyltransferase (ChAT) positive cells, and the neurite outgrowth was measured (smilagenin only).
# [3] = test system: rat primary cortical neurones; experiment: ChAT positive neurones and neurite outgrowth after β-amyloid exposure; assay type: cell-based; conditions: 10 μM pre-incubation 48 h, then β-amyloid 10 μg/ml 48 h
# Protocol: as §1
# [4] = test system: Rat cortical neurones; experiment: Reversal of glutamate-induced damage in cortical neurones; assay type: cell-based; conditions: 30 nM for 24 h after glutamate 100 μM 10 min
# Protocol: The rat cortical neurones were prepared as detailed above. On day 13, cultures were exposed to glutamate (100 μM) for 10 min at 37° C. in 5% CO2/95% air atmosphere in defined medium. Following the incubation period, the cultures were washed and maintained in fresh medium, containing sarsasapogenin, smilagenin or vehicle. Cells were cultured for a further 24 h after glutamate exposure and were then assessed for neuronal damage as detailed above.
# [5] = test system: C57b1/6 RJ mice; experiment: Sciatic nerve crush model; assay type: in vivo, Mouse
# Source text: The sciatic nerve crush model is a well characterised reversible model for motor neurone disease and post-traumatic nerve injuries (McMahon and Priestley, Current Opinion in Neurobiology, 1995, 5, pp. 616-624). The nerve damage is produced by mechanical pressure using haemostatic forceps, applied twice, 5 mm proximal to the trifurcation of the right sciatic nerve of these mice. […] The loss of nerve function recovers progressively over a 4-5 week period after the mechanical insult.
# 4-Methylcatechol (10 μg/kg/day, i.p.) was used as a positive control (Kaechi et al., Journal of Phamacology and Experimental Therapeutics, 1995, 272, pp. 1300-1304).
# C57b1/6 RJ mice were anaesthetised with ketamine chlorhydrate (60 mg/kg, i.p.). The sciatic nerve was surgically exposed at mid thigh level and crushed at 5 mm proximal to the trifurcation of the sciatic nerve. The nerve was crushed twice for 30 s with a haemostatic forceps with a 90-degree rotation between each crush. […] The loss of nerve function recovered progressively over a 4-5 week period after mechanical insult. Electromyographic recordings were assessed as described above.
# [6] = test system: Old Sprague Dawley (SD) rats; experiment: Y-maze learning and memory in aged rats; assay type: in vivo, Rat; conditions: 18 mg/kg/day oral
# Protocol: Old Sprague Dawley (SD) rats (20 month old) were orally administered sarsasapogenin or smilagenin (18 mg/kg/day) for 3 months. Young SD rats (4 month old) were used as healthy positive control and old SD rats (20 month old) were used as neurodegenerative control. A Y-maze was used to assess learning and memory, and was considered also a model of anxiety in light of the nature of the test that caused distress to the animal. On the floor of each arm of the Y-maze was an array of copper rods (2 mm×140 mm) to which an adjustable voltage electric current was applied when needed. Each arm was 450 mm long with a 15 W lamp at the end. Following 2 months of treatment each rat was trained for 7 consecutive days, once on each day. During each training session, a rat was put into one arm of the Y-maze and after 2 min an electrical current applied to the copper rods in the anti-clockwise arm and the lamp of the clockwise arm was illuminated, indicating the non-electrified area. If the rat went into the illuminated arm a correct response was recorded, otherwise a wrong response was recorded. This stimulation-response test was repeated 20 times each day, with a pause of 5 s between each test. The number of correct responses and the total time period for the 20 tests were recorded. A quotient of the number of correct responses divided by the total response time was calculated and used as an index for learning ability, with the higher the quotient the greater the learning ability. One month after the learning test (3 months of treatment) the Y-maze test was carried out again and the quotient obtained was used as an index for memory ability. At the end of the treatment the rats were killed and the brains removed for quantification of BDNF using an ELISA (data of BDNF presented in Example 3 above).
# [7] = Tissue distribution after a single oral administration, rat; assay type: in vivo; conditions: 30 mg/kg single oral
# [8] = Long term oral toxicity study, non-rodents; assay type: in vivo; conditions: high doses, 39 weeks in non-rodents
structure (smiles),measurement,setting,value
"C[C@H]1CC[C@@]2(OC1)O[C@H]1C[C@H]3[C@@H]4CC[C@@H]5C[C@@H](O)CC[C@]5(C)[C@H]4CC[C@]3(C)[C@H]1[C@@H]2C [Sarsasapogenin, sarsasapogenin]","BDNF mRNA, % increase above control",[1]; 1 h,No increase
same,"BDNF mRNA, % increase above control",[1]; 3 h,22%
same,"BDNF mRNA, % increase above control",[1]; 6 h,No increase
same,BDNF concentration (pg/ml),[2],"9.31 ± 0.15^++++,**** pg/ml"
same,Number of ChAT positive neurones per field (% of control),[3],71.6 ± 3.7 % of control
same,Neuronal survival (% of control),[4],103.43 ± 5.10 % of control
same,Degenerated fibres (% of control),"[5]; 3 mg/kg/day oral, nerve crush alone 109.10 ± 2.65",33.50 ± 12.60 % of control
same,"Recovery of nerve function as measured by CMAP parameters (amplitude, latency, duration)","[5]; sarsasapogenin 3, smilagenin 0.3 and 3 mg/kg/day, oral gavage in oil, 6 weeks",significantly improved the recovery of nerve function
same,Learning ability (correct response/total time),"[6]; 2 months, aged 2.39, young 5.97",5.02 ± 0.50 correct response/total time
same,Memory ability (correct response/total time),"[6]; 3 months, aged 2.16, young 5.27",4.66 ± 0.34 correct response/total time
same,Anxiety (Y-maze),[6]; up to 3 months,reduce the anxiety
same,"Concentration of compound, Brain","[7]; Rat F, 1 h",1210 ng equivalents/g tissue
same,"Concentration of compound, Plasma","[7]; Rat F, 1 h",1530 ng equivalents/g tissue
same,"Concentration of compound, Spinal cord","[7]; Rat F, 1 h",3020 ng equivalents/g tissue
same,"Concentration of compound, Brain","[7]; Rat F, 4 h",3860 ng equivalents/g tissue
same,"Concentration of compound, Plasma","[7]; Rat F, 4 h",2050 ng equivalents/g tissue
same,"Concentration of compound, Spinal cord","[7]; Rat F, 4 h",3830 ng equivalents/g tissue
same,"Concentration of compound, Brain","[7]; Rat F, 8 h",5980 ng equivalents/g tissue
same,"Concentration of compound, Plasma","[7]; Rat F, 8 h",1760 ng equivalents/g tissue
same,"Concentration of compound, Spinal cord","[7]; Rat F, 8 h",5080 ng equivalents/g tissue
same,"Concentration of compound, Brain","[7]; Rat F, 24 h",2800 ng equivalents/g tissue
same,"Concentration of compound, Plasma","[7]; Rat F, 24 h",629 ng equivalents/g tissue
same,"Concentration of compound, Spinal cord","[7]; Rat F, 24 h",3290 ng equivalents/g tissue
same,"Concentration of compound, Brain","[7]; Rat F, 168 h",134 ng equivalents/g tissue
same,"Concentration of compound, Plasma","[7]; Rat F, 168 h",90 ng equivalents/g tissue
same,"Concentration of compound, Spinal cord","[7]; Rat F, 168 h",590 ng equivalents/g tissue
same,"Concentration of compound, Brain","[7]; Rat M, 1 h",1140 ng equivalents/g tissue
same,"Concentration of compound, Plasma","[7]; Rat M, 1 h",1690 ng equivalents/g tissue
same,"Concentration of compound, Spinal cord","[7]; Rat M, 1 h",1090 ng equivalents/g tissue
same,"Concentration of compound, Brain","[7]; Rat M, 4 h",4970 ng equivalents/g tissue
same,"Concentration of compound, Plasma","[7]; Rat M, 4 h",2920 ng equivalents/g tissue
same,"Concentration of compound, Spinal cord","[7]; Rat M, 4 h",4350 ng equivalents/g tissue
same,"Concentration of compound, Brain","[7]; Rat M, 8 h",6920 ng equivalents/g tissue
same,"Concentration of compound, Plasma","[7]; Rat M, 8 h",2970 ng equivalents/g tissue
same,"Concentration of compound, Spinal cord","[7]; Rat M, 8 h",6060 ng equivalents/g tissue
same,"Concentration of compound, Brain","[7]; Rat M, 24 h",3800 ng equivalents/g tissue
same,"Concentration of compound, Plasma","[7]; Rat M, 24 h",967 ng equivalents/g tissue
same,"Concentration of compound, Spinal cord","[7]; Rat M, 24 h",4720 ng equivalents/g tissue
same,"Concentration of compound, Brain","[7]; Rat M, 168 h",194 ng equivalents/g tissue
same,"Concentration of compound, Plasma","[7]; Rat M, 168 h",149 ng equivalents/g tissue
same,"Concentration of compound, Spinal cord","[7]; Rat M, 168 h",747 ng equivalents/g tissue
same,Long term toxicity,[8],without showing any signs of toxicity or adverse events

# Source: US20120034193A1, “TREATMENT OF NEUROTROPHIC FACTOR MEDIATED DISORDERS” (priority 2009, published 2012)
